Source: patent publication US6869956B2, “Methods of treating inflammatory and immune diseases using inhibitors of IκB kinase (IKK)” (Bristol-Myers Squibb Company, priority 2000, dated 2005)

Tests used:
Pharmacokinetics in mice = assay type: in vivo; details: mouse, plasma, BALB/c mice
Experimental: Compound 6 was administered to BALB/c mice either per orally (p.o.) or intravenously (i.v.). Blood was drawn at various times (0.5 to 4 hours) after dosing and the plasma drug levels measured by liquid chromatography-mass spectral analysis.

[1] = tested on: transplanted hearts (graft rejection); assay: Murine neonatal heart to ear transplants, graft survival; assay type: in vivo, BALB/c mice
Experimental: Cardiac transplants were performed as described by Fulmer et al. (Fulmer, R. I. et al. The American Journal of Anatomy 113:273-281, 1963). Neonatal hearts were obtained from newborn C57BL/6 mice not more than 48 hours after birth. The hearts were transplanted into recipient BALB/c mice, which were prepared under anesthesia by making a small incision at the base of the ear pinna and forming a pocket by gently lifting the skin away from the ear. The incision permitted the insertion of the donor heart subcutaneously into the pocket. […] The pulsations of the heart were measured by contractile activity with an appropriate electrocardiogram (ECG) monitoring device. The contractile activity of the transplanted graft was monitored daily. The time of graft rejection was defined as the day after transplantation on which contractile activity ceased. Without therapeutic intervention, the host mounts an immune response to the transplanted heart (i.e., graft rejection). This immune response causes the transplanted heart to cease beating typically 10-14 days post transplantation.
Test compounds were administered in daily doses either alone or in combination with other therapies, such as Cyclosporine A (15 mg/kg, orally, “p.o.”) or CTLA4-Ig (200 μg in 200 μl PBS given intraperitoneally on only days 0, 2, and 4). Table 2 presents the effects of test compounds on median survival time of transplanted hearts, either alone or in combination with Cyclosporine A (CsA). Table 3 presents the effects of test compounds on median survival time of transplanted hearts, either alone or in combination with CTLA4-Ig.

[2] = tested on: collagen-induced arthritis; assay: Murine model of collagen-induced arthritis; assay type: in vivo, DBA/1 LacJ male mice; parameters: Cumulative arthritis injury score (±sem): scale not given here
Experimental: DBA/1 LacJ male mice 6-8 wk (Jackson Laboratories; Bar Harbor, Me.) were immunized subcutaneously on day 0 and on day 21 with 100 μg bovine type 11 collagen in 0.1 mL RIBI Adjuvant System (RAS) with monophosphoryl lipid A(RIBI lmmunoChem Research; Hamilton, Mont.). In this model, disease onset occurs within one week after the second collagen injection.
When treated in a preventative mode, test compounds were administered daily beginning on day 0 through day 41.
In the established (i.e. therapeutic) mode, the administration of test compounds was initiated only after paw inflammation of an animal had achieved a score of 2 (as defined below), at which time, the animal was randomly assigned to a treatment group. Treatment continued daily for all four paws as described below.
Following the Day 21 booster, mice were regularly monitored for the development and severity of paw inflammation.
Clinical paw scores for all four paws were summed for each mouse and the mean ± standard deviation (SD) was calculated for each treatment group.
Histological scoring involved evaluating histologically and grading semi-quantitatively tibiotarsal joints of sacrificed mice, specifically examining the severity of inflammation, synovial hyperplasia, bone resorption, and cartilage erosion. Cumulative arthritis injury scores for each group were compared by the nonparametric Kruskal-Wallis analysis of variance.

DSS-induced colitis = assay: Dextran sulfate sodium-induced murine model of inflammatory bowel disease; assay type: in vivo, Swiss-Webster mice; details: for Mean clinical score: colon, scale 0-3
Experimental: In this model, Swiss-Webster mice (8 weeks old, 5 animals per treatment group) were given 6% DSS in their drinking water for 7 consecutive days to induce intestinal inflammation. Test compounds were administered daily throughout the study. On day 9, animals were sacrificed and the colons were removed for clinical and histological evaluation.
Clinical scoring was determined by the gross clinical evaluation of the injury on a scale from 0 (normal) to 3 (severe) as detailed in Table 7.
For histological scoring, colon sections were graded as to the severity of crypt injury and the degree of inflammation. The crypt injury was scored as detailed in Table 8, wherein the crypt is part of the glandular make-up of the colon.
Tissue involvement was scored as detailed in Table 9. Any signs of crypt injury or inflammation, regardless of severity, constitute tissue involvement.
The injury histological score is defined as the product of the crypt injury grade and the tissue involvement grade. The scoring of severity of inflammation is detailed in Table 10.
The inflammation histological score is the product of the severity of inflammation grade and the extent of tissue involvement grade. Crypt injury and inflammatory scoring were performed on each colon section and a mean score and standard error were determined for each section. Cumulative crypt injury and inflammatory scores for each group were determined. The results of Table 12 present the cumulative injury and inflammation scores of colons in mice with DSS-induced colitis.

[3] = tested on: ovalbumin-induced inflammatory cell infiltration in the lung; assay: Ovalbumin-induced inflammatory cell infiltration into the lung of sensitized mice; assay type: in vivo, BALB/c mice; details: for Total Inflammatory Cells in BAL: days 14 to 17, BAL on day 18
Experimental: In the pulmonary inflammation animal model, BALB/c mice were sensitized by an intraperitoneal injection of 0.1 mL alum-precipitated antigen containing 40 μg ovalbumin adsorbed to aluminum hydroxide gel on days 0 and 10. On day 14, animals received intranasal challenge with 100 μg ovalbumin in 50 μl saline (PBS). Mice were injected intraperitoneally with antigen to sensitize the animals prior to intranasal challenge to induce lung inflammation. Administration of the test compound was given on days 14 to 17. On day 18, bronchoalveolar lavage fluid (BAL) was collected for measurements of total inflammatory cell infiltration (eosinophils, monocytes, lymphocytes, and neutrophils).

[4] = tested on: TNFα production in THP-1 cells; assay: TNFα production assay in LPS-stimulated THP-1 cells; assay type: cell-based; details: Homo sapiens, 6 hours, ELISA, read-out: IC50 in TNF-α production assay
Experimental: THP-1 (human monocytic cell line) obtained from ATCC was cultured in RPMI-1640 supplemented with 10% FBS, sodium pyruvate, HEPES, 2-mercaptoethanol, Penicillin/Streptomycin. To a 96-well plate containing THP-1 cells (1.4×10^6/mL, 2.5×10^5 cells/well) in 180 μL RPMI-1640 was added 20 μL of the test compound in 10% DMSO. […] After one hour at 37° C., 20 μL of 1000 ng/mL lipopolysaccharide (LPS from Salmonella typhosa, Sigma) was added to each well. After an additional 6 hours at 37° C., the supernatants were collected following a 5 minute centrifugation of the plate to pellet the cells. The amount of TNFα in these supernatants was then measured using a TNFα-specific ELISA (Pharmingen). […] IC50 values were calculated from the percentage inhibition at various doses.

LPS-induced serum TNFα = LPS-induced serum TNFα in mice; assay type: in vivo, BALB/c mice; details: p.o.
Experimental: As a measure of activity against NF-κB-dependent TNFα production in vivo, test compounds were administered to BALB/c mice subsequently challenged with an intravenous dose of E. coli LPS (1 μg in 100 μL phosphate-buffered saline). One hour after LPS challenge, blood was collected from the mice and the levels of TNFα in the serum measured by EIA(R&D Systems). Inhibition was calculated from control animals which received LPS challenge with no test compound.

For `Cc1ccc2nc(NCCN)c3ncc(C)n3c2c1` [Compound 6, 4(2′-aminoethyl)amino-1,8-dimethylimidazo(1,2-a)quinoxaline], the half-life (Pharmacokinetics in mice; iv, apparent terminal elimination phase after i.v. dose) was 474 min, the bioavailability (Pharmacokinetics in mice; oral, AUC p.o. divided by AUC i.v.) was 100% and the “Median Graft Survival Time” value ([1]; CTLA4-Ig (200 μg i.p. days 0, 2, 4) plus Compound 6 50 mg/kg p.o.) was 32 days. For the same molecule, the “Median Graft Survival Time” value ([1]; CTLA4-Ig (200 μg i.p. days 0, 2, 4) plus Compound 6 100 mg/kg p.o.) was >60 days, the “Median Graft Survival Time” value ([1]; Compound 6 50 mg/kg p.o. alone) was 12 days and the “Median Graft Survival Time” value ([1]; Cyclosporine A 15 mg/kg p.o. plus Compound 6 50 mg/kg p.o.) was 29 days. The “effect of combination with cyclosporine A or CTLA4-Ig on graft survival” value ([1]; co-administered with cyclosporine A or CTLA4-Ig) was “synergistic effects”, the “Cumulative arthritis injury score (±sem)” value ([2]; established mode, 10 mg/kg, two weeks after disease onset) was 4.2 ± 1.0 and the disease progression ([2]; established mode, 30 mg/kg p.o., vs vehicle) was “significantly inhibited disease progression”. The “Cumulative arthritis injury score (±sem)” value ([2]; established mode, 30 mg/kg, two weeks after disease onset) was 2.1 ± 0.9, the disease progression ([2]; established mode, 100 mg/kg p.o.) was “significant disease resolution” and the “Cumulative arthritis injury score (±sem)” value ([2]; established mode, 100 mg/kg, two weeks after disease onset) was 0.9 ± 0.5. For the same molecule, the “Cumulative arthritis injury score (±sem)” value ([2]; preventative mode, 10 mg/kg) was 5.3 ± 1.7, the “Cumulative arthritis injury score (±sem)” value ([2]; preventative mode, 30 mg/kg) was 0.4 ± 0.4 and the disease onset ([2]; preventative mode, 30 mg/kg p.o. daily) was “inhibited disease onset”. For the same molecule, the “Cumulative arthritis injury score (±sem)” value ([2]; preventative mode, 30 mg/kg, listed as compound 6, 30 mg/kg) was 0.4, the “Cumulative arthritis injury score (±sem)” value ([2]; preventative mode, 100 mg/kg) was 0.0 and the “incidence of disease (FIG. 1)” value ([2]; preventative mode, 100 mg/kg daily, vs vehicle) was “significant difference in incidence of disease”. For the same molecule, the disease onset ([2]; preventative mode, 100 mg/kg p.o. daily) was “prevented any disease onset”, the “Cumulative arthritis injury score (±sem)” value ([2]; preventative mode, 100 mg/kg, listed as compound 6, 100 mg/kg) was 0 and the “Group Mean Inflammation Histological Score” value (DSS-induced colitis; 30 mg/kg p.o. daily) was 7.58 ± 0.81. The “Group Mean Injury Histological Score” value (DSS-induced colitis; 30 mg/kg p.o. daily) was 4.83 ± 0.55, the Mean clinical score (DSS-induced colitis; 30 mg/kg p.o. daily) was 1.10 ± 0.49 and the “Group Mean Inflammation Histological Score” value (DSS-induced colitis; 100 mg/kg p.o. daily) was 6.82 ± 0.85. The “Group Mean Injury Histological Score” value (DSS-induced colitis; 100 mg/kg p.o. daily) was 5.66 ± 0.87, the Mean clinical score (DSS-induced colitis; 100 mg/kg p.o. daily) was 1.00 ± 0.35 and the “clinical and histological score vs untreated mice” value (DSS-induced colitis; daily administration) was “statistically significant decrease in clinical and histological score”. For the same molecule, the “Total Inflammatory Cells in BAL” value ([3]; 30 mg/kg p.o.) was 2.8 × 10^6 ± 1.3 × 10^6, the “Total Inflammatory Cells in BAL” value ([3]; 100 mg/kg p.o.) was 2.2 × 10^6 ± 0.3 × 10^6 and the “total inflammatory cells in the lungs vs untreated mice” value ([3]; administration after ovalbumin challenge) was “statistically significant decrease in total inflammatory cells in the lungs”. For the same molecule, the IC50 [4] was 4 µM, the “inhibition of the LPS-induced serum TNFα levels in vivo” value (from here on “inhibition”) (LPS-induced serum TNFα; 10 mg/kg) was 27-63% and the “inhibition” value (LPS-induced serum TNFα; 30 mg/kg) was 53-89%. For the same molecule, the “inhibition” value (LPS-induced serum TNFα; 50 mg/kg) was 83-92%.
